Experimental data taken from ChEMBL document CHEMBL4819028, “Structures and Biosynthetic Pathway of Coprisamides C and D, 2-Alkenylcinnamic Acid-Containing Peptides from the Gut Bacterium of the Carrion Beetle Silpha perforata” (J Nat Prod, 2021).
≈ marks a conversion by molar mass, not a printed value. Calls of active or inactive are those of the source. No cut-off for these calls is given here.

What was measured:
[1] = test system: Mycobacterium tuberculosis; experiment: Antitubercular activity against Mycobacterium tuberculosis mc2 6230 assessed as inhibition of bacterial growth incubated for 5 days by REMA; type: functional; conditions: mc2 6230, 120 h, time 5 day
[2] = biological target: NAD(P)H dehydrogenase [quinone] 1 (Mus musculus) (UniProt Q64669); experiment: Induction of quinone reductase activity in mouse Hepa1c1c7 cells at 10 uM incubated for 24 hrs by MTT based assay; type: cell-based; conditions: filed as activator
Chain of NAD(P)H dehydrogenase [quinone] 1 (Mus musculus) (Q64669 whole entry): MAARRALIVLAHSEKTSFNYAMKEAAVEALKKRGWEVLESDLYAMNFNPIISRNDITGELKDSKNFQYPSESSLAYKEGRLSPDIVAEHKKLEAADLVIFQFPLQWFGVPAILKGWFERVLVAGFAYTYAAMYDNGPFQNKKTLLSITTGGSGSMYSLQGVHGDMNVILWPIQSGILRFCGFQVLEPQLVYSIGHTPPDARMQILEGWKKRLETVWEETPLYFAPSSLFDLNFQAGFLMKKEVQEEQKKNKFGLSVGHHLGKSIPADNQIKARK

[3] = Cytotoxicity against mouse Hepa1c1c7 cells at higher concentration; type: cell-based
[4] = test system: Staphylococcus aureus; experiment: Antibacterial activity against Staphylococcus aureus; type: functional, organism-based
[5] = test system: Enterococcus faecalis; experiment: Antibacterial activity against Enterococcus faecalis; type: functional, organism-based
[6] = test system: Enterococcus faecium; experiment: Antibacterial activity against Enterococcus faecium; type: functional, organism-based
[7] = test system: Klebsiella pneumoniae; experiment: Antibacterial activity against Klebsiella pneumoniae; type: functional, organism-based
[8] = test system: Salmonella enterica; experiment: Antibacterial activity against Salmonella enterica; type: functional, organism-based
[9] = test system: Escherichia coli; experiment: Antibacterial activity against Escherichia coli; type: functional, organism-based
[10] = test system: Aspergillus fumigatus; experiment: […] activity against Aspergillus fumigatus; type: functional, organism-based
[11] = test system: Trichophyton rubrum; experiment: […] activity against Trichophyton rubrum; type: functional, organism-based
[12] = test system: Trichophyton mentagrophytes; experiment: […] activity against Trichophyton mentagrophytes; type: functional, organism-based
[13] = test system: Candida albicans; experiment: […] activity against Candida albicans; type: functional, organism-based

Compound	MIC50 [1] [µg/mL]	fold change (FC) [2]	Activity [3]	Activity [4]	Activity [5]	Activity [6]	Activity [7]	Activity [8]	Activity [9]	Activity [10]	Activity [11]	Activity [12]	Activity [13]
CC[C@@H](CO)NCCN[C@@H](CC)CO [ETHAMBUTOL]	0.83 (≈ 4.06 µM)												
NNC(=O)c1ccncc1 [ISONIAZID]	0.03 (≈ 0.219 µM)												
C/C=C/C=C/C/C=C\c1ccccc1/C=C/C(=O)NC(C)C(=O)N[C@@H]1COC(=O)[C@H]([C@H](C)C(=O)O)NC(=O)[C@H](CNC(=O)C(N)C(C)C)NC(=O)[C@H](C(C)C)NC(=O)[C@@H](CC(C)C)NC1=O (some centres undefined)		2.6											
CC(C)C/C=C/C=C/c1ccccc1/C=C/C(=O)N[C@H](C)C(=O)N[C@@H]1COC(=O)[C@H]([C@H](C)C(=O)O)NC(=O)[C@H](CNC(=O)[C@@H](N)C(C)C)NC(=O)[C@H](C(C)C)NC(=O)[C@@H](CC(C)C)NC1=O		2.3	Toxic	inactive	inactive	inactive	inactive	inactive	inactive	inactive	inactive	inactive	inactive
CC(C)/C=C/C/C=C\c1ccccc1/C=C/C(=O)N[C@H](C)C(=O)N[C@@H]1COC(=O)[C@H]([C@H](C)C(=O)O)NC(=O)[C@H](CNC(=O)[C@@H](N)C(C)C)NC(=O)[C@H](C(C)C)NC(=O)[C@@H](CC(C)C)NC1=O	82.8 (≈ 89.7 µM)	2.4	Toxic	inactive	inactive	inactive	inactive	inactive	inactive	inactive	inactive	inactive	inactive
C/C=C/C=C/C=C/c1ccccc1/C=C/C(=O)NC(C)C(=O)N[C@@H]1COC(=O)[C@H]([C@H](C)C(=O)O)NC(=O)[C@H](CNC(=O)C(N)C(C)C)NC(=O)[C@H](C(C)C)NC(=O)[C@@H](CC(C)C)NC1=O (some centres undefined)		2.1											
